Consider 18 compounds from patent US9024017B2, “Octahydro-cyclopentapyrrolyl antagonists of CCR2” (Janssen Pharmaceutica NV, priority 2012, dated 2015).

For this experiment, the target named is T1, CCR2 (Homo sapiens, UniProt P41597).
T1 construct: host or cells: THP-1 (human monocytic cell line)
The experiment can be described thus: MCP-1 Receptor Binding Assay in THP-1 Cells. As to conditions: read-out: MCP1B_v3 IC50. On the procedure: Compounds of the invention were subjected to various representative biological tests. […] MCP-1 Receptor Binding Assay in THP-1 Cells Human monocytic cell line THP-1 cells were obtained from American Type Culture Collection (Manassas, Va., USA). The THP-1 cells were grown in RPMI-1640 (RPMI: Roswell Park Memorial Institute Medium-cell culture growth media) supplemented with 10% fetal bovine serum in a humidified 5% CO2 atmosphere at 37° C. The cell density was maintained between […].
THP-1 (cells were incubated with 0.5 nM ^125I labeled MCP-1 (Perkin-Elmer Life Sciences, Inc. Boston, Mass.) in the presence of varying concentrations of either unlabeled MCP-1 (R & D Systems, Minneapolis, Minn.) or test compound for 2 hours at 30° C. in a 96 well plate. Cells were then harvested onto a filter plate, dried, and 20 μL of Microscint 20 was added to each well. Plates were counted in a TopCount NXT, Microplate Scintillation & Luminescence Counter (Perkin-Elmer Life Sciences, Inc. Boston, Mass.). Blank values (buffer only) were subtracted from all values and drug treated values were compared to vehicle treated values. 1 μM cold MCP-1 was used for nonspecific binding.

T1 sequence (P41597 whole entry): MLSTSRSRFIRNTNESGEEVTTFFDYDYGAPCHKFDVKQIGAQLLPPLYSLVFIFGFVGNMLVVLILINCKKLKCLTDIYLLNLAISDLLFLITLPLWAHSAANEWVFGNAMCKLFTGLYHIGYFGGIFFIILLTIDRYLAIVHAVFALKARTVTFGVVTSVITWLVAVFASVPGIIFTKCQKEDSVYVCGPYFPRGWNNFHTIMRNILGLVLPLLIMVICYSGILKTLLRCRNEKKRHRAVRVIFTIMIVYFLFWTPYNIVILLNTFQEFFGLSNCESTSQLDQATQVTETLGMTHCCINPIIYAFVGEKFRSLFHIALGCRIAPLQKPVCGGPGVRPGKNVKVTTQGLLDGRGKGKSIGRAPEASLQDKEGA

As a reminder, the IC50 is the concentration needed to halve the response being measured. Turning to `COC1COCCC1N[C@@H]1C[C@H]2CN(C(=O)n3ccnc3)C[C@@]2(C(=O)N2CCc3ncc(C(F)(F)F)cc3C2)C1` (relative stereo) [Example 23, ((3aR,5R,6aR)-2-(1H-Imidazole-1-carbonyl)-5-(((3S*,4S*)-3-methoxytetrahydro-2H-pyran-4-yl)amino)octahydrocyclopenta[c]pyrrol-3a-yl)(3-(trifluoromethyl)-7,8-dihydro-1,6-naphthyridin-6(5H)-yl)methanone], the IC50 turned out to be 280 nM.
With `COC1COCCC1N[C@@H]1C[C@H]2CN(C(=O)n3ccnc3)C[C@@]2(C(=O)N2CCc3ccc(C(F)(F)F)cc3C2)C1` (relative stereo) [Example 24, ((3aR,5R,6aR)-2-(1H-Imidazole-1-carbonyl)-5-(((3S*,4S*)-3-methoxytetrahydro-2H-pyran-4-yl)amino)octahydrocyclopenta[c]pyrrol-3a-yl)(7-(trifluoromethyl)-3,4-dihydroisoquinolin-2(1H)-yl)methanone], the IC50 stood at 50 nM.
The value for `COC1COCCC1N[C@@H]1C[C@H]2CN(C(N)=S)C[C@@]2(C(=O)N2CCc3ncc(C(F)(F)F)cc3C2)C1` (relative stereo) [Example 25, (3aR,5R,6aR)-5-(((3S*,4S*)-3-Methoxytetrahydro-2H-pyran-4-yl)amino)-3a-(3-(trifluoromethyl)-5,6,7,8-tetrahydro-1,6-naphthyridine-6-carbonyl)hexahydrocyclopenta-[c]pyrrole-2(1H)-carbothioamide] was 90 nM; that for `COC1COCCC1N[C@@H]1C[C@H]2CN(C(=S)NCc3ccccc3)C[C@@]2(C(=O)N2CCc3ncc(C(F)(F)F)cc3C2)C1` (relative stereo) [Example 26, (3aR,5R,6aR)-N-Benzyl-5-(((3S*,4S*)-3-methoxytetrahydro-2H-pyran-4-yl)amino)-3a-(3-(trifluoromethyl)-5,6,7,8-tetrahydro-1,6-naphthyridine-6-carbonyl)hexahydrocyclopenta-[c]pyrrole-2(1H)-carbothioamide] was 200 nM.
The same measure for `CNC(=S)N1C[C@@H]2C[C@@H](NC3CCOCC3OC)C[C@]2(C(=O)N2CCc3ncc(C(F)(F)F)cc3C2)C1` (relative stereo) [Example 27, (3aR,5R,6aR)-5-(((3S*,4S*)-3-Methoxytetrahydro-2H-pyran-4-yl)amino)-N-methyl-3a-(3-(trifluoromethyl)-5,6,7,8-tetrahydro-1,6-naphthyridine-6-carbonyl)hexahydrocyclopenta[c]pyrrole-2(1H)-carbothioamide]: 30 nM; for `CNC(=S)N1C[C@@H]2C[C@@H](N(C(=S)NC)C3CCOCC3OC)C[C@]2(C(=O)N2CCc3ncc(C(F)(F)F)cc3C2)C1` (relative stereo) [Example 28, (3aR,5R,6aR)-5-(1-((3S*,4S*)-3-Methoxytetrahydro-2H-pyran-4-yl)-3-methylthioureido)-N-methyl-3a-(3-(trifluoromethyl)-5,6,7,8-tetrahydro-1,6-naphthyridine-6-carbonyl)hexahydrocyclopenta[c]pyrrole-2(1H)-carbothioamide]: 250 nM; for `COC1COCCC1N[C@@H]1C[C@H]2CN(C(=S)NCC(C)C)C[C@@]2(C(=O)N2CCc3ncc(C(F)(F)F)cc3C2)C1` (relative stereo) [Example 29, (3aR,5R,6aR)-N-Isobutyl-5-(((3S*,4S*)-3-methoxytetrahydro-2H-pyran-4-yl)amino)-3a-(3-(trifluoromethyl)-5,6,7,8-tetrahydro-1,6-naphthyridine-6-carbonyl)hexahydrocyclopenta[c]pyrrole-2(1H)-carbothioamide]: 30 nM.
Turning to `COC1COCCC1N(C(=S)NCC(C)C)[C@@H]1C[C@H]2CN(C(=S)NCC(C)C)C[C@@]2(C(=O)N2CCc3ncc(C(F)(F)F)cc3C2)C1` (relative stereo) [Example 30, (3aR,5R,6aR)-N-Isobutyl-5-((3S*,4S*)-3-isobutyl-1-(3-methoxytetrahydro-2H-pyran-4-yl)thioureido)-3a-(3-(trifluoromethyl)-5,6,7,8-tetrahydro-1,6-naphthyridine-6-carbonyl)hexahydrocyclopenta[c]pyrrole-2(1H)-carbothioamide], the IC50 turned out to be 90 nM.
The same measure for `COC1COCCC1N[C@@H]1C[C@H]2CN(C(=S)n3ccnc3)C[C@@]2(C(=O)N2CCc3ncc(C(F)(F)F)cc3C2)C1` (relative stereo) [Example 31, ((3aR,5R,6aR)-2-(1H-Imidazole-1-carbonothioyl)-5-(((3S*,4S*)-3-methoxytetrahydro-2H-pyran-4-yl)amino)octahydrocyclopenta[c]pyrrol-3a-yl)(3-(trifluoromethyl)-7,8-dihydro-1,6-naphthyridin-6(5H)-yl)methanone]: 80 nM; for `COC1COCCC1N[C@@H]1C[C@H]2CN(S(N)(=O)=O)C[C@@]2(C(=O)N2CCc3ncc(C(F)(F)F)cc3C2)C1` (relative stereo) [Example 32, (3aR,5R,6aR)-5-(((3S*,4S*)-3-Methoxytetrahydro-2H-pyran-4-yl)amino)-3a-(3-(trifluoromethyl)-5,6,7,8-tetrahydro-1,6-naphthyridine-6-carbonyl)hexahydrocyclopenta-[c]pyrrole-2(1H)-sulfonamide]: 130 nM; for `COC1COCCC1N[C@@H]1C[C@H]2CN(S(=O)(=O)NCc3ccccc3)C[C@@]2(C(=O)N2CCc3ncc(C(F)(F)F)cc3C2)C1` (relative stereo) [Example 33, (3aR,5R,6aR)-N-Benzyl-5-(((3S*,4S*)-3-methoxytetrahydro-2H-pyran-4-yl)amino)-3a-(3-(trifluoromethyl)-5,6,7,8-tetrahydro-1,6-naphthyridine-6-carbonyl)hexahydrocyclopenta[c]pyrrole-2(1H)-sulfonamide]: 410 nM.
Consider `COC(=O)N1C[C@@H]2C[C@@H](NC3CCOCC3OC)C[C@]2(C(=O)N2CCc3ncc(C(F)(F)F)cc3C2)C1` (relative stereo) [Example 34, (3aR,5R,6aR)-Methyl 5-(((3S*,4S*)-3-methoxytetrahydro-2H-pyran-4-yl)amino)-3a-(3-(trifluoromethyl)-5,6,7,8-tetrahydro-1,6-naphthyridine-6-carbonyl)hexahydrocyclopenta[c]pyrrole-2(1H)-carboxylate], for which the 50% inhibitory concentration (IC50) was found to be 50 nM.
The same measure for `CCCOC(=O)N1C[C@@H]2C[C@@H](NC3CCOCC3OC)C[C@]2(C(=O)N2CCc3ncc(C(F)(F)F)cc3C2)C1` (relative stereo) [Example 35, (3aR,5R,6aR)-Propyl 5-(((3S*,4S*)-3-methoxytetrahydro-2H-pyran-4-yl)amino)-3a-(3-(trifluoromethyl)-5,6,7,8-tetrahydro-1,6-naphthyridine-6-carbonyl)hexahydro-cyclopenta[c]pyrrole-2(1H)-carboxylate]: 60 nM; for `COC1COCCC1N[C@@H]1C[C@H]2CN(C(=O)OCC(C)(C)C)C[C@@]2(C(=O)N2CCc3ncc(C(F)(F)F)cc3C2)C1` (relative stereo) [Example 36, (3aR,5R,6aR)-Neopentyl 5-(((3S*,4S*)-3-methoxytetrahydro-2H-pyran-4-yl)amino)-3a-(3-(trifluoromethyl)-5,6,7,8-tetrahydro-1,6-naphthyridine-6-carbonyl)hexahydro-cyclopenta[c]pyrrole-2(1H)-carboxylate]: 560 nM; for `COC1COCCC1N[C@@H]1C[C@H]2CN(C(=O)Oc3ccccc3)C[C@@]2(C(=O)N2CCc3ncc(C(F)(F)F)cc3C2)C1` (relative stereo) [Example 37, (3aR,5R,6aR)-Phenyl 5-(((3S*,4S*)-3-methoxytetrahydro-2H-pyran-4-yl)amino)-3a-(3-(trifluoromethyl)-5,6,7,8-tetrahydro-1,6-naphthyridine-6-carbonyl)hexahydro-cyclopenta[c]pyrrole-2(1H)-carboxylate]: 150 nM.
In the case of `C=CCOC(=O)N1C[C@@H]2C[C@@H](NC3CCOCC3OC)C[C@]2(C(=O)N2CCc3ncc(C(F)(F)F)cc3C2)C1` (relative stereo) [Example 38, (3aR,5R,6aR)-Allyl 5-(((3S*,4S*)-3-methoxytetrahydro-2H-pyran-4-yl)amino)-3a-(3-(trifluoromethyl)-5,6,7,8-tetrahydro-1,6-naphthyridine-6-carbonyl)hexahydrocyclopenta[c]pyrrole-2(1H)-carboxylate], the IC50 was determined as 40 nM.
The same measure for `COC1COCCC1N[C@@H]1C[C@H]2CN(C(=O)OCCN3CCOCC3)C[C@@]2(C(=O)N2CCc3ncc(C(F)(F)F)cc3C2)C1` (relative stereo) [Example 39, (3aR,5R,6aR)-2-Morpholinoethyl 5-(((3S*,4S*)-3-methoxytetrahydro-2H-pyran-4-yl)amino)-3a-(3-(trifluoromethyl)-5,6,7,8-tetrahydro-1,6-naphthyridine-6-carbonyl)hexahydrocyclopenta[c]pyrrole-2(1H)-carboxylate]: 10 nM.
In the case of `CCN(CC)CCOC(=O)N1C[C@@H]2C[C@@H](NC3CCOCC3OC)C[C@]2(C(=O)N2CCc3ccc(C(F)(F)F)cc3C2)C1` (relative stereo) [Example 41, (3aR,5R,6aR)-2-(Diethylamino)ethyl 5-(((3S*,4S*)-3-methoxytetrahydro-2H-pyran-4-yl)amino)-3a-(7-(trifluoromethyl)-1,2,3,4-tetrahydroisoquinoline-2-carbonyl)hexahydrocyclopenta[c]pyrrole-2(1H)-carboxylate], the IC50 was 10 nM.
